Experimental data from publication PMC11283233, “A comparative analysis of NADPH supply strategies in Saccharomyces cerevisiae: Production of D-xylitol from D-xylose as a case study” (Metabolic Engineering Communications, 2024).

Tests used:
[1] = molecular target: T1, Zwf1 (glucose-6-phosphate dehydrogenase) (Saccharomyces cerevisiae, UniProt P11412); assay: NADP+ reduction at […] nm, crude extract of overexpressing strain PRY63; type: biochemical; settings: 2.5 mM glucose-6-phosphate, 0.67 mM NADP+, 50 mM imidazole pH 7.0, 100 mM KCl, 10 mM MgCl2, 0.1 mM EDTA
T1 construct: full-length, untagged; overexpressed from truncated HXT7 promoter at the genomic ZWF1 locus; crude yeast extract
T1 sequence (P11412 2-505): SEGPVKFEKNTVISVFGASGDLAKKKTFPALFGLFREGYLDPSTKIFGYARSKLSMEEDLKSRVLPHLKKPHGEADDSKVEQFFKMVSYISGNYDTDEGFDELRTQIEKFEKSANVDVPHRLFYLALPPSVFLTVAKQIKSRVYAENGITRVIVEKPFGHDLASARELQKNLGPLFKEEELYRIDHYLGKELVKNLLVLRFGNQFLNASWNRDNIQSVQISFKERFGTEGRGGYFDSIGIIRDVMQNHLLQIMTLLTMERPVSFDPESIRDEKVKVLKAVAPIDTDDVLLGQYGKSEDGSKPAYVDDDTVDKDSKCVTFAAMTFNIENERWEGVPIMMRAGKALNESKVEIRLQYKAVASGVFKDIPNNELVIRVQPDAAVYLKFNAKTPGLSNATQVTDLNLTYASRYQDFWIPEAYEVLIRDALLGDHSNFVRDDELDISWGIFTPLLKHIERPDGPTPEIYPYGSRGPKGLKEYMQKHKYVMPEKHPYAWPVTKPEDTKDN

[2] = molecular target: T2, Zwf1 (glucose-6-phosphate dehydrogenase) (Saccharomyces cerevisiae, UniProt P11412, DEL59-59); assay: NADP+ reduction at […] nm, crude extract of overexpressing strain PRY48 (ZWF1*); type: biochemical; settings: 2.5 mM glucose-6-phosphate, 0.67 mM NADP+, 50 mM imidazole pH 7.0, 100 mM KCl, 10 mM MgCl2, 0.1 mM EDTA
T2 construct: full-length, untagged; overexpressed from truncated HXT7 promoter at the genomic ZWF1 locus; crude yeast extract
T2 sequence (P11412 with tags, fused parts or gaps DEL59-59): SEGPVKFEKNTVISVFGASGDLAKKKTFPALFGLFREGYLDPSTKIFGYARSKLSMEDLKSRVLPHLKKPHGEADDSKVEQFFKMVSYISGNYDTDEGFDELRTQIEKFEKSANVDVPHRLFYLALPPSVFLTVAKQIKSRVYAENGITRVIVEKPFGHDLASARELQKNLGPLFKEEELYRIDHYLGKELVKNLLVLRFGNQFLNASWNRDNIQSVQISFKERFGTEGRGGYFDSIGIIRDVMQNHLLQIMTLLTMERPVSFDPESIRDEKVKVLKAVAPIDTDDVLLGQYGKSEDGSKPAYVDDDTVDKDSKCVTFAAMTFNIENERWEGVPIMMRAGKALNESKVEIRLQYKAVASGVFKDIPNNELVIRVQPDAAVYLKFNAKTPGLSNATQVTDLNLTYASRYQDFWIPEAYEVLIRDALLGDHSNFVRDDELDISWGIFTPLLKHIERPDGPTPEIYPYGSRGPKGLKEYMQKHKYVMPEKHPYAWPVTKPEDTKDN

Xyl1 (coXYL1) = molecular target: T3, Xyl1 (coXYL1) (Scheffersomyces stipitis, UniProt P31867); assay: xylitol formation in cells, HPLC, versus empty vector; type: cell-based; settings: whole-cell fermentation, SC medium, 30 g/L glucose, 20 g/L xylose, 30 °C; NADPH-dependent
T3 construct: full-length, codon-optimized gene on p425H7, expressed in S. cerevisiae PRY39 (gre3 deleted); intact cells
T3 sequence (P31867 1-318): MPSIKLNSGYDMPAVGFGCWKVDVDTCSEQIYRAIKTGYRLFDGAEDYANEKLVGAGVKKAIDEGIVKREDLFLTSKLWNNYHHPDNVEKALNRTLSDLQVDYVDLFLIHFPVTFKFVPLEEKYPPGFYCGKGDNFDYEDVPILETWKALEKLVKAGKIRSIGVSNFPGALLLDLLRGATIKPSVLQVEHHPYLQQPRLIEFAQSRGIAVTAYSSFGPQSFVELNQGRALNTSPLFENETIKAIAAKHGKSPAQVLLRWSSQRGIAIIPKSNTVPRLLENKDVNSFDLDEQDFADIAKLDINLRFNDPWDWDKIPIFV

Gre3 (coGRE3, ScGRE3) = molecular target: T4, Gre3 (coGRE3, ScGRE3) (Saccharomyces cerevisiae, UniProt P38715); assay: as above; type: cell-based; settings: whole-cell fermentation, SC medium, 30 g/L glucose, 20 g/L xylose, 30 °C; NADPH-dependent
T4 construct: full-length, codon-optimized or native gene on p425H7, expressed in S. cerevisiae PRY39 (gre3 deleted); intact cells
T4 sequence (P38715 2-327): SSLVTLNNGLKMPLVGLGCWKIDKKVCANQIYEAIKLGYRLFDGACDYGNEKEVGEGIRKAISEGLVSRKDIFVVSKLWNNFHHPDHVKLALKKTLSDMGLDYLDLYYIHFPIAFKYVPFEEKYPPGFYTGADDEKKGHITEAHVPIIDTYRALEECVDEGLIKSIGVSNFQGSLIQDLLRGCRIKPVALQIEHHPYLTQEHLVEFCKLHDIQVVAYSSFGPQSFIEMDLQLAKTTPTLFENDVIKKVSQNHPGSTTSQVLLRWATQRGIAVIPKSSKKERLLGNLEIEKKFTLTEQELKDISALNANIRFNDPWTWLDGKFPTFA

Structure (SMILES) | NADP+ reduction at 340 nm, crude extract of overexpressing strain PRY63 [1] | NADP+ reduction at 340 nm, crude extract of overexpressing strain PRY48 (ZWF1*) [2] | xylitol formation in cells, HPLC, versus empty vector (Xyl1 (coXYL1)) | xylitol formation in cells, HPLC, versus empty vector (Gre3 (coGRE3, ScGRE3))
NC(=O)c1ccc[n+]([C@@H]2O[C@H](COP(=O)(O)OP(=O)(O)OC[C@H]3O[C@@H](n4cnc5c(N)ncnc54)[C@H](OP(=O)(O)O)[C@@H]3O)[C@@H](O)[C@H]2O)c1 [NADP^+] | The reduction of NADP^+ was recorded by continuously measuring the change of the absorbance | the deletion of Glu59 apparently led to a higher Zwf1 activity | – | –
O=P(O)(O)OC[C@H]1OC(O)[C@H](O)[C@@H](O)[C@@H]1O (some centres unmarked) [glucose-6-phosphate] | A G6PDH assay was performed in crude extracts from the engineered strains | – | – | –
OC1OC[C@@H](O)[C@H](O)[C@H]1O (some centres unmarked) [xylose] | – | – | The expression of all XR constructs led to considerably high xylitol titers | The expression of all XR constructs led to considerably high xylitol titers
